Data on one compound can be found in BindingDB's records for doi:10.1021/jm300185p (Takeda Pharmaceutical, 2012).

This assay has as its target Mitogen-activated protein kinase kinase kinase 7 (TAK1 kinase) (Homo sapiens) (UniProt O43318). The assay is described as follows: Inhibition of N-terminus FLAG-tagged TAK1 expressed in baculovirus expression system using [gamma-33P]-ATP measured after 60 mins by scintillation counting.

Chain of Mitogen-activated protein kinase kinase kinase 7 (TAK1 kinase) (Homo sapiens) (O43318 whole entry, looked up): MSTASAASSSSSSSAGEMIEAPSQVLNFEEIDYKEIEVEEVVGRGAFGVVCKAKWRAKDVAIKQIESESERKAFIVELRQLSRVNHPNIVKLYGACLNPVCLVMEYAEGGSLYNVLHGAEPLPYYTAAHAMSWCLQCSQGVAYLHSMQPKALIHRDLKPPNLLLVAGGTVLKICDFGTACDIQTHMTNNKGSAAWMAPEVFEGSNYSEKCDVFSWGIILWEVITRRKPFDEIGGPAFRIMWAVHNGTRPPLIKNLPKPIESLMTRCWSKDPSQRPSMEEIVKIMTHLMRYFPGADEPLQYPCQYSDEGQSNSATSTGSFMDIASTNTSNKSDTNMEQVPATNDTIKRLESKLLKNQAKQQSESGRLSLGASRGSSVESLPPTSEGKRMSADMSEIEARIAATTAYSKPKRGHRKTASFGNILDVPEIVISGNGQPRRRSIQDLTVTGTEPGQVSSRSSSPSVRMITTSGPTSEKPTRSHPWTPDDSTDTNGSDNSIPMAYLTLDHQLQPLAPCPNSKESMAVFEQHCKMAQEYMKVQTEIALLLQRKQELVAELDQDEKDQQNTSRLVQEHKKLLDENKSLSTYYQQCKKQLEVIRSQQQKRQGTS

As a reminder, the IC50 is the concentration at which inhibition is half-maximal. Lower therefore signals greater potency in that assay. In the case of `CC(C)(N)C(=O)NCCn1ccc2ncnc(Nc3ccc(Oc4cccc5sncc45)c(Cl)c3)c21`, the IC50 was > 10 µM.
